Data as given in patent US10471092B2, “Combination of hyaluronic acid and macrogol and pharmaceutical compositions containing it” (APHARM S.r.l., priority 2015, dated 2019).
Where “and” joins values, the source holds several entries; their conditions need not be identical. Equal entries are not always repeated.

Legend:
Format in all cases: in vivo, rat
rats [1] = test: Evaluation of the amount of stool (number of expelled pellets)
Experimental: (§1) Intestinal transit, colon peristalsis and the amount of stool expelled have been evaluated on rats, after the administration of different individual doses of macrogol and sodium hyaluronate and of the combination of the invention.
In Table 3 it is possible to observe an increase in the number of expelled pellets from the rat after the PEG (365-1460 mg/kg p.o. without water and […] p.o. with water) and 20-50 mg/kg hyaluronate treatment in both conditions. […] A greater number of expelled pellets have been induced by the combination of 730 mg/kg p.o. PEG with 30 and 50 mg/kg p.o. sodium hyaluronate+water. […] By administering a dose of 487 mg/kg PEG+50 mg/kg p.o. sodium hyaluronate+water, the number of expelled pellets is equal to that one that can be observed with 730 mg/kg p.o. PEG and 30 mg/kg p.o. sodium hyaluronate. […] The stool expulsion has been monitored for each rat, starting from 1 h after the administration of the preparations (Martinez e Taché, Brain Res. 893: 29-35, 2001).

rats [2] = test: Intestinal transit, activated carbon feed (method of Schulz et al); conditions: for % of increase of intestinal transit with respect to: rats
Experimental: as §1
On the other hand, such a parameter is increased with a dose-response behavior at the same doses by adding 0.3 ml of water administered per os. as well. In fact, the percentage increase values range from +10% at the 365 mg/kg p.o. dose of PEG to +23% at the 1560 mg/kg p.o. dose. […] Interesting results, under the same experimental conditions, have been obtained with the combination of PEG and sodium hyaluronate.
The experiment has been carried out following the method of Schulz et al (NS Arch. Pharmacol. 308:255-260, 1979) by using an activated carbon feed. 1.5 ml of a 20% (w/v) activated carbon suspension in a 5% (w/v) gum arabic solution has been administered by gavage to 24 hrs starved rats with free access to water. The rats have been sacrificed 10 min after receiving the activated carbon feed and their intestine has been completely removed. The transit in the small intestine has been calculated for each rat as the ratio between the traveled distance of the activated carbon feed and the total length of the intestine itself. Data are expressed as the percentage of transit in treated rats with respect to controls that have been considered as 100. Administration of the preparations occurred 30 min before sacrificing the animal.

rats [3] = test: Colon propulsion, glass bead expulsion from distal colon (Raffa et al.; Lopez)
Excerpt: as §1
In this case all the values are significant with respect to the same treatment without water. […] Analogously to what observed in tab. […] The reduction of expulsion time results to be dose dependent, being in all the cases clearly evident and statistically significant with respect to the PEG+water dose. […] Propulsion of distal colon has been measured according to the method of Raffa et al. (Life Sci., 41: 2229-34, 1987) and of Lopez (Dig. Dis. Sci., 29:551, 1984). 30 min after the administration of the preparations, a 5 mm diameter glass bead has been inserted in the distal colon of each rat at 3 cm from the anus. The parameter taken as the reference was the time required by each rat to expel the bead. The lower the expulsion time, the highest the colon propulsion.

[4] = 20 mg/kg p.o. IALURONATE, no water
[5] = 30 mg/kg p.o. IALURONATE, no water
[6] = 50 mg/kg p.o. IALURONATE, no water

## polyethylene glycol [PEG]
Rats [1]; 365 mg/kg p.o. PEG + Water 2 ml
  No of pellets after 60 min: 0
Rats [1]; 365 mg/kg p.o. PEG, no water
  No of pellets after 60 min: 0
Rats [1]; 487 mg/kg p.o. PEG + Water 2 ml
  No of pellets after 60 min: 2
Rats [1]; 730 mg/kg p.o. PEG + Water 2 ml
  No of pellets after 60 min: 3
Rats [1]; 730 mg/kg p.o. PEG, no water
  No of pellets after 60 min: 0
Rats [1]; 973 mg/kg p.o. PEG + Water 2 ml
  No of pellets after 60 min: 3
Rats [1]; 973 mg/kg p.o. PEG, no water
  No of pellets after 60 min: 1
Rats [1]; 1460 mg/kg p.o. PEG, no water
  No of pellets after 60 min: 1
Rats [1]; 1560 mg/kg p.o. PEG + Water 2 ml
  No of pellets after 60 min: 3
Rats [2]; 365 mg/kg p.o. PEG + Water 0.3 ml
  % of increase of intestinal transit with respect to: 10% and 10.8%
Rats [2]; 365 mg/kg p.o. PEG, no water
  % of increase of intestinal transit with respect to: 9.4%
Rats [2]; 487 mg/kg p.o. PEG + Water 0.3 ml
  % of increase of intestinal transit with respect to: 11.5%
Rats [2]; 730 mg/kg p.o. PEG + Water 0.3 ml
  % of increase of intestinal transit with respect to: 15.3%
Rats [2]; 730 mg/kg p.o. PEG, no water
  % of increase of intestinal transit with respect to: 6.7%
Rats [2]; 973 mg/kg p.o. PEG + Water 0.3 ml
  % of increase of intestinal transit with respect to: 18.6%
Rats [2]; 973 mg/kg p.o. PEG, no water
  % of increase of intestinal transit with respect to: 8.8%
Rats [2]; 1460 mg/kg p.o. PEG, no water
  % of increase of intestinal transit with respect to: 8.6%
Rats [2]; 1560 mg/kg p.o. PEG + Water 0.3 ml
  % of increase of intestinal transit with respect to: 23% and 23.2%
Rats [2]; PEG by gavage, 365 to 1460 mg/kg p.o., without water, rat
  intestinal motility: does not induce a significant increase
Rats [3]; 365 mg/kg p.o. PEG + Water 0.3 ml, rats
  Bead Expulsion time: 153 ± 13 s
Rats [3]; 365 mg/kg p.o. PEG, no water, rats
  Bead Expulsion time: 202 ± 11 s
Rats [3]; 487 mg/kg p.o. PEG + Water 0.3 ml, rats
  Bead Expulsion time: 135 ± 19 s
Rats [3]; 730 mg/kg p.o. PEG + Water 0.3 ml, rats
  Bead Expulsion time: 128 ± 16 s
Rats [3]; 730 mg/kg p.o. PEG, no water, rats
  Bead Expulsion time: 181 ± 9 s
Rats [3]; 973 mg/kg p.o. PEG + Water 0.3 ml, rats
  Bead Expulsion time: 116 ± 18 s
Rats [3]; 973 mg/kg p.o. PEG, no water, rats
  Bead Expulsion time: 185 ± 12 s
Rats [3]; 1460 mg/kg p.o. PEG, no water, rats
  Bead Expulsion time: 173 ± 15 s
Rats [3]; 1560 mg/kg p.o. PEG + Water 0.3 ml, rats
  Bead Expulsion time: 93 ± 9 s
Rats [3]; PEG 365 to 1560 mg/kg p.o. with simultaneous intake of water, vs same treatment without water, rats
  colon propulsion activity: statistically significant effect
Rats [3]; PEG alone, without simultaneous administration of water by gavage, rats
  colon propulsion activity: does not modify

## sodium hyaluronate [IALURONATE]
Rats [1]; 20 mg/kg p.o. IALURONATE + Water 2 ml
  No of pellets after 60 min: 2
Rats [1]; [4]
  No of pellets after 60 min: 0
Rats [1]; 30 mg/kg p.o. IALURONATE + Water 2 ml
  No of pellets after 60 min: 2
Rats [1]; [5]
  No of pellets after 60 min: 1
Rats [1]; 50 mg/kg p.o. IALURONATE + Water 2 ml
  No of pellets after 60 min: 3
Rats [1]; [6]
  No of pellets after 60 min: 1
Rats [2]; 20 mg/kg p.o. IALURONATE + Water 0.3 ml
  % of increase of intestinal transit with respect to: 17.0%
Rats [2]; [4]
  % of increase of intestinal transit with respect to: 0%
Rats [2]; 30 mg/kg p.o. IALURONATE + Water 0.3 ml
  % of increase of intestinal transit with respect to: 19.6%
Rats [2]; [5]
  % of increase of intestinal transit with respect to: 3.8%
Rats [2]; 50 mg/kg p.o. IALURONATE + Water 0.3 ml
  % of increase of intestinal transit with respect to: 20.3%
Rats [2]; [6]
  % of increase of intestinal transit with respect to: 4.2%
Rats [2]; sodium hyaluronate 20-50 mg/kg p.o., without simultaneous intake of water, rat
  intestinal transit: does not induce an increase
Rats [3]; 20 mg/kg p.o. IALURONATE + Water 0.3 ml, rats
  Bead Expulsion time: 129 ± 14 s
Rats [3]; 20 mg/kg p.o. IALURONATE, no water, rats
  Bead Expulsion time: 195 ± 12 s
Rats [3]; 30 mg/kg p.o. IALURONATE + Water 0.3 ml, rats
  Bead Expulsion time: 120 ± 11 s
Rats [3]; 30 mg/kg p.o. IALURONATE, no water, rats
  Bead Expulsion time: 191 ± 16 s
Rats [3]; 50 mg/kg p.o. IALURONATE + Water 0.3 ml, rats
  Bead Expulsion time: 114 ± 15 s
Rats [3]; 50 mg/kg p.o. IALURONATE, no water, rats
  Bead Expulsion time: 188 ± 21 s
Rats [3]; sodium hyaluronate 20-50 mg/kg p.o. by gavage, no water, rats
  expulsion time of the bead: does not modify
Rats [3]; sodium hyaluronate 20-50 mg/kg p.o., rat intakes water (0.2 ml)
  expulsion time of the bead: the effect is very evident
